Reference: patent publication US11780893B2, “Kv1.3 blockers” (Zealand Pharma A/S, priority 2019, dated 2023)
Bridge positions count the residues as written; N and C are the ends. Square brackets hold non-standard residues; d marks the D form. Peptide text beside a SMILES is read from it. Nle = CCCC[C@H](N)C(=O)O

What was measured:
Test in all cases: cell-based
[1] = molecular target: T1, human Kv1.3 voltage-gated K+ channel (Homo sapiens, UniProt P22001); details: inhibition of thallium flux, CHO-DUKX cells with human Kv1.3; read-out: IC50
T1 construct: host or cells: CHO-DUKX

Kv1.1 = molecular target: T2, Kv1.1 (Homo sapiens, UniProt Q09470); details: for IC50: CHO cells, whole-cell patch clamp, read-out: Potency IC50 (nM) Kv1.1; for Selectivity Kv1.1/Kv1.3: ratio IC50[Kv1.1]/IC50[Kv1.3]
T2 construct: expressed in transfected cells; host or cells: Chinese Hamster Ovary (CHO)

Kv1.2 = molecular target: T3, Kv1.2 (Homo sapiens, UniProt P16389); details: CHO cells, whole-cell patch clamp; read-out: Potency IC50 (nM) Kv1.2
T3 construct: expressed in transfected cells; host or cells: Chinese Hamster Ovary (CHO)

Kv1.3 = molecular target: T4, Kv1.3 (Homo sapiens, UniProt P22001); details: CHO cells, whole-cell patch clamp; read-out: Potency IC50 (nM) Kv1.3
T4 construct: expressed in transfected cells; host or cells: Chinese Hamster Ovary (CHO)

Kv1.6 = molecular target: T5, Kv1.6 (Homo sapiens, UniProt P17658); details: for IC50: CHO cells, whole-cell patch clamp, read-out: Potency IC50 (nM) Kv1.6; for Selectivity Kv1.6/Kv1.3: ratio IC50[Kv1.6]/IC50[Kv1.3]
T5 construct: expressed in transfected cells; host or cells: Chinese Hamster Ovary (CHO)
T5 sequence (P17658 whole entry): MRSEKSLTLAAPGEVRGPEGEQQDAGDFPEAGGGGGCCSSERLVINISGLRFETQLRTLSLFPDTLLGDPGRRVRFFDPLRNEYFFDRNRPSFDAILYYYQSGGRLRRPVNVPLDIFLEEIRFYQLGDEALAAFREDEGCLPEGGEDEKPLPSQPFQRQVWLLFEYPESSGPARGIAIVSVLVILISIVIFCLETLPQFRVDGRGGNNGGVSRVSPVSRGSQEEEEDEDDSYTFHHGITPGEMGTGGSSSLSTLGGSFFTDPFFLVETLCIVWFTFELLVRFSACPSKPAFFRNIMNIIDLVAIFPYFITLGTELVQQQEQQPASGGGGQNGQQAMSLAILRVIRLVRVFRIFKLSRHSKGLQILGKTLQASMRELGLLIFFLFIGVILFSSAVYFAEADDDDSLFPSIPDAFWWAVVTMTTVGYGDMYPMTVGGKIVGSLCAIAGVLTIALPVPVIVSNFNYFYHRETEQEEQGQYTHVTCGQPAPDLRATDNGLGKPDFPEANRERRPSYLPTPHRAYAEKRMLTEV

T4 sequence (P22001 whole entry): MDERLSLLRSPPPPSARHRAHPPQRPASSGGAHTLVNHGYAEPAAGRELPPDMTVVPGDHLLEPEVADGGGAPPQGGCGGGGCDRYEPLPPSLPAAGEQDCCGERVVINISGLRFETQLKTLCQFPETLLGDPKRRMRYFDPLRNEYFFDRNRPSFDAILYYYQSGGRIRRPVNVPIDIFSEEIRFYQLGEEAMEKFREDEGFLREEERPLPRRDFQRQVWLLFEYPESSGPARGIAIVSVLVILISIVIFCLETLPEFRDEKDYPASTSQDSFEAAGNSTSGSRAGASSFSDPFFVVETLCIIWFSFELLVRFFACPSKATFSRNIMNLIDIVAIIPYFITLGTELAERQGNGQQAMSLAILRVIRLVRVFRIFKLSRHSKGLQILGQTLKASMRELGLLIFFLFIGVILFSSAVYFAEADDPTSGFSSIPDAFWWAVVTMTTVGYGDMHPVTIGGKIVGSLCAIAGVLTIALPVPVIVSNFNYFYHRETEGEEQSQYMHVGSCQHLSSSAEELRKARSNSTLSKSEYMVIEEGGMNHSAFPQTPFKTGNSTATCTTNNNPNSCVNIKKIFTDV
T1 sequence (P22001 whole entry): as above
T2 sequence (Q09470 whole entry): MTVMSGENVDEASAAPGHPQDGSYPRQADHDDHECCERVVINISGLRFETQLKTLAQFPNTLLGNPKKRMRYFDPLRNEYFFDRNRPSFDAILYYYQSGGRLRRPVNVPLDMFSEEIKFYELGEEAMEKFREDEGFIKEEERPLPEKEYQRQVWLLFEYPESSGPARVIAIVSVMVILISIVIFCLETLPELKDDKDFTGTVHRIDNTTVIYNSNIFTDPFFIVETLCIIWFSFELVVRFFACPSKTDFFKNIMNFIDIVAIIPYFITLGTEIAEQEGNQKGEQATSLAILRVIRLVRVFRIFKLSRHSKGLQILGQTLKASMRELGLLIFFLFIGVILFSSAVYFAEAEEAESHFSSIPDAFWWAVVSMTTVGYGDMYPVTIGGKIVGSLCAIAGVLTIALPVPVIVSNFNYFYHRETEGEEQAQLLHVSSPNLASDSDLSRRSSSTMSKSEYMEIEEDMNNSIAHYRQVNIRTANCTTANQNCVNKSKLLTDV
T3 sequence (P16389 whole entry): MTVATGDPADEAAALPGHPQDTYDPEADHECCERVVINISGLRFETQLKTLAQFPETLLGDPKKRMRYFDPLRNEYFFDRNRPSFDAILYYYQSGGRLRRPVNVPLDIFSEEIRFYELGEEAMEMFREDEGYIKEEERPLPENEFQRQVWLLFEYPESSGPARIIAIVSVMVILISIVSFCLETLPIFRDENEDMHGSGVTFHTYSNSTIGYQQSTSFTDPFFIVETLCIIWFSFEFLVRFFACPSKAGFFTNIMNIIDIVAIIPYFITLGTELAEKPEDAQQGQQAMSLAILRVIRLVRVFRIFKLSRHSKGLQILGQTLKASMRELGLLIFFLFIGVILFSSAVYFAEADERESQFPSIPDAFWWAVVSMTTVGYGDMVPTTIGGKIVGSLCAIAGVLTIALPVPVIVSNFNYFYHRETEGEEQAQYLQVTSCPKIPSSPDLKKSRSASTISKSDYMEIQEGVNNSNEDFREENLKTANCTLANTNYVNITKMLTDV

SMILES	IC50 [1] [nM]	IC50 (Kv1.1) [nM]	Selectivity Kv1.1/Kv1.3 (Kv1.1)	IC50 (Kv1.2) [nM]	IC50 (Kv1.3) [nM]	IC50 (Kv1.6) [nM]	Selectivity Kv1.6/Kv1.3 (Kv1.6)
CCCC[C@@H]1NC(=O)[C@@H]2CSSC[C@H](NC(=O)[C@H](CCCNC(=N)N)NC(=O)[C@H](CCCC)NC(=O)[C@H](CC(=O)O)NC(=O)[C@H](CCCC)NC(=O)[C@@H](N)CC(N)=O)C(=O)N[C@@H](CO)C(=O)N[C@@H](C)C(=O)N[C@@H](CO)C(=O)N[C@@H](C(C)C)C(=O)N[C@@H](CCC(=O)O)C(=O)N[C@H]3CSSC[C@H](NC(=O)[C@H](CCCCN)NC(=O)[C@H](CCCCN)NC(=O)[C@H](CC(N)=O)NC1=O)C(=O)N[C@@H](CCCCN)C(=O)N[C@H](C(=O)N[C@@H](Cc1ccc(O)cc1)C(=O)N1CCC[C@H]1C(=O)N[C@@H](CCCNC(=N)N)C(N)=O)CSSC[C@H](NC(=O)[C@H](CCCCN)NC(=O)[C@H](CCCCN)NC(=O)[C@H](CCCCN)NC3=O)C(=O)N[C@@H](CC(C)C)C(=O)N[C@@H](CCCCN)C(=O)N[C@@H](C)C(=O)N[C@@H]([C@@H](C)CC)C(=O)NCC(=O)N[C@@H](CO)C(=O)N[C@@H]([C@@H](C)CC)C(=O)N[C@@H](Cc1ccccc1)C(=O)NCC(=O)N[C@@H](CCCCN)C(=O)N2 [Compound 45] (H-N[Nle]D[Nle]RCSASVECKKKCLKAIGSIFGKC[Nle]NKKCKCYPR-NH2; disulfide 6-27, 12-32, 16-34)	0.16	> 3000	>4000	257	0.75	> 3000	>4000
CC[C@H](C)[C@@H]1NC(=O)[C@H](C)NC(=O)[C@H](CC(C)C)NC(=O)[C@@H]2CSSC[C@@H](C(=O)N[C@@H](Cc3ccc(O)cc3)C(=O)N3CCC[C@H]3C(=O)N[C@@H](CCCNC(=N)N)C(N)=O)NC(=O)[C@H](CCCCN)NC(=O)[C@@H]3CSSC[C@H](NC(=O)[C@H](CCC(=O)O)NC(=O)[C@H](C(C)C)NC(=O)[C@H](CO)NC(=O)[C@H](C)NC(=O)[C@H](CO)NC(=O)[C@@H](NC(=O)[C@H](CCCNC(=N)N)NC(=O)[C@H](CCSC)NC(=O)[C@H](CC(=O)O)NC(=O)[C@H](CCSC)NC(=O)[C@@H](N)CC(N)=O)CSSC[C@H](NC(=O)[C@H](CCCCN)NC(=O)CNC(=O)[C@H](Cc4ccccc4)NC(=O)[C@H]([C@@H](C)CC)NC(=O)[C@H](CO)NC(=O)CNC1=O)C(=O)N[C@@H](CCSC)C(=O)N[C@@H](CC(N)=O)C(=O)N[C@@H](CCCCN)C(=O)N[C@@H](CCCCN)C(=O)N3)C(=O)N[C@@H](CCCCN)C(=O)N[C@@H](CCC(N)=O)C(=O)N[C@@H](CCCCN)C(=O)N2 [Compound 54] (H-NMDMRCSASVECKQKCLAIGSIFGKCMNKKCKCYPR-NH2; disulfide 6-26, 12-31, 16-33)	0.46	> 3000	>1200	291	2.41	> 3000	>1200
CC[C@H](C)[C@@H]1NC(=O)[C@H](CCCNC(=N)N)NC(=O)[C@H](CCCCN)NC(=O)[C@H](CC(C)C)NC(=O)[C@@H]2CSSC[C@@H](C(=O)N[C@@H](Cc3ccc(O)cc3)C(=O)N3CCC[C@H]3C(=O)N[C@@H](CCCNC(=N)N)C(N)=O)NC(=O)[C@H](CCCCN)NC(=O)[C@@H]3CSSC[C@H](NC(=O)[C@H](CCC(=O)O)NC(=O)[C@H](C(C)C)NC(=O)[C@H](CO)NC(=O)[C@H](C)NC(=O)[C@H](CO)NC(=O)[C@@H](NC(=O)[C@H](CCCNC(=N)N)NC(=O)[C@H](CCSC)NC(=O)[C@H](CC(=O)O)NC(=O)[C@H](CCSC)NC(=O)[C@@H](N)CC(N)=O)CSSC[C@H](NC(=O)[C@H](CCCCN)NC(=O)CNC(=O)[C@H](Cc4ccccc4)NC(=O)[C@H]([C@@H](C)CC)NC(=O)[C@H](CO)NC(=O)CNC1=O)C(=O)N[C@@H](CCSC)C(=O)N[C@@H](CC(N)=O)C(=O)N[C@@H](CCCCN)C(=O)N[C@@H](CCCCN)C(=O)N3)C(=O)N[C@@H](CCCCN)C(=O)N[C@@H](CCC(N)=O)C(=O)N[C@@H](CCCCN)C(=O)N2 [Compound 56] (H-NMDMRCSASVECKQKCLKRIGSIFGKCMNKKCKCYPR-NH2; disulfide 6-27, 12-32, 16-34)	0.087	> 3000	>9900	57	0.3	932	–
CC[C@H](C)[C@@H]1NC(=O)[C@H](CO)NC(=O)CNC(=O)[C@H](Cc2ccc(O)cc2)NC(=O)[C@H](C)NC(=O)[C@H](CCCCN)NC(=O)[C@H](CC(C)C)NC(=O)[C@@H]2CSSC[C@@H](C(=O)N[C@@H](Cc3ccc(O)cc3)C(=O)N3CCC[C@H]3C(=O)N[C@@H](CCCNC(=N)N)C(N)=O)NC(=O)[C@H](CCCCN)NC(=O)[C@@H]3CSSC[C@H](NC(=O)[C@H](CCC(=O)O)NC(=O)[C@H](C(C)C)NC(=O)[C@H](CO)NC(=O)[C@H](C)NC(=O)[C@H](CO)NC(=O)[C@@H](NC(=O)[C@H](CCCNC(=N)N)NC(=O)[C@H](CCSC)NC(=O)[C@H](CC(=O)O)NC(=O)[C@H](CCSC)NC(=O)[C@@H](N)CC(N)=O)CSSC[C@H](NC(=O)[C@H](CCCCN)NC(=O)CNC(=O)[C@H](Cc4ccccc4)NC1=O)C(=O)N[C@@H](CCSC)C(=O)N[C@@H](CC(N)=O)C(=O)N[C@@H](CCCCN)C(=O)N[C@@H](CCCCN)C(=O)N3)C(=O)N[C@@H](CCCCN)C(=O)N[C@@H](CCC(N)=O)C(=O)N[C@@H](CCCCN)C(=O)N2 [Compound 58] (H-NMDMRCSASVECKQKCLKAYGSIFGKCMNKKCKCYPR-NH2; disulfide 6-27, 12-32, 16-34)	0.11	> 3000	>8800	145	0.34	> 3000	>8800
CCCC[C@H](NC(=O)[C@H](CC(=O)O)NC(=O)[C@H](CCCC)NC(=O)[C@@H](N)CO)C(=O)N[C@@H](CCCNC(=N)N)C(=O)N[C@H]1CSSC[C@@H]2NC(=O)[C@H](CCCCN)NC(=O)CNC(=O)[C@H](Cc3ccccc3)NC(=O)[C@H]([C@@H](C)CC)NC(=O)[C@H](CO)NC(=O)CNC(=O)[C@H]([C@@H](C)CC)NC(=O)[C@H](C)NC(=O)[C@H](CCCCN)NC(=O)[C@H](CC(C)C)NC(=O)[C@@H]3CSSC[C@@H](C(=O)N[C@@H](Cc4ccc(O)cc4)C(=O)N4CCC[C@H]4C(=O)N[C@@H](CCCNC(=N)N)C(N)=O)NC(=O)[C@H](CCCCN)NC(=O)[C@H](CSSC[C@H](NC(=O)[C@H](CCC(=O)O)NC(=O)[C@H](C(C)C)NC(=O)[C@H](CO)NC(=O)[C@H](C)NC(=O)[C@H](CO)NC1=O)C(=O)N[C@@H](C)C(=O)N[C@@H](CCC(N)=O)C(=O)N[C@@H](CO)C(=O)N3)NC(=O)[C@H](CCCCN)NC(=O)[C@H](CCCCN)NC(=O)[C@H](CC(N)=O)NC(=O)[C@H](CCSC)NC2=O [Compound 79] (H-S[Nle]D[Nle]RCSASVECAQSCLKAIGSIFGKCMNKKCKCYPR-NH2; disulfide 6-27, 12-32, 16-34)	0.13	> 3000	>14600	1150	0.21	> 3000	>14600
